Test results published in patent US5714516A, “Anti-viral agents” (priority 1992, dated 1998).
In brackets after ≈: the same amount, converted by molar mass. Entries after “also recorded” stand apart in the source; their conditions may differ. Like-named read-outs stand apart in the source and are kept apart here. One block for each molecule: values may come before it.

How the values were obtained:
[1] = system: Varicella zoster virus (VZV); assay: VZV plaque reduction assay in Mewo cells; format: cell-based, varicella zoster virus (VZV) strain H-551; details: for Inhibition of VZV (in words): Example 1, 2 to 200 μM
Description: (§1) The assay system used was the Mewo cell plaque reduction assay of VZV, C. Grose and P. A. Brunell, Infection & Immunity, 19, 199-203 (1978). […] Compounds were tested at levels from 2 to 200 μM.
(§2) The VZV plaque assay of Example 1 was repeated using a variety of myristic acid analogues. Briefly, sub-confluent Mewo monolayers (Grose and Brunell, 1978, supra) in 24 well plates were infected with approximately 40 P.F.U. (Plaque Forming Units) of cell-free varicella zoster virus (VZV) strain H-551. After an adsorption period of 2 hours the cells were overlaid with 750 μl of MEM (Minimum Essential Medium (Eagle)) supplemented with 2% fetal calf serum and 1% non-essential amino acids. The anti-viral compounds to be tested were solubilized in ethanol, added to final concentrations of 0, 2, 20 or 200 μM and the wells then overlaid with a further 750 μl of MEM supplemented with 2% fetal calf serum, 1% non-essential amino acids and 0.3% agarose. Mock infected wells were also included as controls to test for cytotoxicity. All plates were incubated at 32° C. with 5% CO2. Eight days post infection the monolayers were fixed in 4% formaldehyde and stained with crystal violet.
(§3) The effect of 2-hydroxymyristic acid (2-HM) on VZV or HIV when solubilized in a variety of solvents was observed using the methods approved for the Medical Research Council AIDS Directed Programme as described in H. C. Holmes et al., Antiviral Chem. & Chemother. (1991), 2(5), 287-293, using concentrations of 2 HM from 0.08to 1000 μM. Additionally, back titration assays of HIV were carried out by adding supernatants from treated infected cells to uninfected C8166 cells at increasing dilutions. Assays were scored by recording the presence or absence of syncytium formation.
(§4) Preparation and assay of VZV was carried out as described previously in Examples 1 and 3.
(§5) Stocks of 2-HM were prepared from crystalline solid by dissolving in ethanol or in dimethyl sulphoxide (DMSO) to a concentration of 20 mM to 100 mM, and were stored at -20° C. prior to addition to culture media.

in vitro = assay: in vitro; design: Toxicity in Mewo Cells: key to the marks not given beside the values; details: human, mewo cells
Description: as §1, §2, §4

Mewo cells = assay: in vitro; design: Toxicity in Mewo Cells: key to the marks not given beside the values
Description: as §1, §2, §4

[2] = system: VZV viral antigen synthesis; assay: Synthesis of VZV viral antigen assayed by immunoblotting in infected MRC5 cells; format: cell-based, Varicella zoster virus (VZV)
Description: In order to characterise the nature of the antiviral effect, the effect of 2-hydroxymyristic acid on the synthesis of viral antigen was assayed by immunoblotting.

MRC5 monolayer = assay: Total protein synthesis by incorporation of 35S methionine in infected MRC5 cells (cytotoxicity); format: cell-based
Description: (§6) Cytotoxicity was assessed by the incorporation of radiolabelled precursors to assay protein synthesis and myristoylation in the infected cell.

myristoylation = assay: Myristoylation in the infected cell by incorporation of radiolabelled precursors; format: cell-based; details: 0.1 to 10×IC50
Description: as §6

HIV [3] = assay: HIV antigen assay; format: cell-based; details: for IC50: Human immunodeficiency virus 1, Table 2
Description: as §3
(§7) The HIV assays were performed at three of the MRC approved laboratories (Mill Hill, Cambridge and St. Bartholomew's Hospital).
as §5, with “media. Concentrations of 2-HM greater than 80 to 100 μM are imprecise, since 2-HM crystallises from aqueous solutions at such levels.” for “media.”

HIV [4] = assay: HIV virus titration (back titration, syncytium formation in C8166 cells); format: cell-based; details: Human immunodeficiency virus 1, C8166; Table 2; Ethanol; Mill Hill
Description: as §3, §7
as §5, with “media. Concentrations of 2-HM greater than 80 to 100 μM are imprecise, since 2-HM crystallises from aqueous solutions at such levels.” for “media.”

[5] = Cytotoxicity to C8166 cells in HIV assays; format: cell-based; details: human, c8166 cells, Table 2
Description: as §3, §7
as §5, with “media. Concentrations of 2-HM greater than 80 to 100 μM are imprecise, since 2-HM crystallises from aqueous solutions at such levels.” for “media.”

C8166 cells = assay: Cytotoxicity to C8166 cells in HIV assays; format: cell-based; details: St. Bartholomew's and Mill Hill; only above levels at which 2-HM would crystallise from aqueous solution
Description: as §3, §7
as §5, with “media. Concentrations of 2-HM greater than 80 to 100 μM are imprecise, since 2-HM crystallises from aqueous solutions at such levels.” for “media.”

[6] = Crystallisation from aqueous solution / medium; format: physicochemical
HIV [7] = details: Saermark et al.; Bryant et al.; cited from earlier work
[8] = Human alphaherpesvirus 3, MeWo, 192 h, read-out: IC50 Against VZV (μM)
[9] = Table 1, Example 3, solubilized in ethanol, 0, 2, 20 or 200 μM, eight days post infection, Mewo cells
[10] = Human alphaherpesvirus 3, MeWo, 192 h, Table 1, Example 3, solubilized in ethanol, 0, 2, 20 or 200 μM, eight days post infection, Mewo cells, read-out: IC50 Against VZV
[11] = Table 1, Example 3, solubilized in ethanol, 0, 2, 20 or 200 μM, eight days post infection, Mewo cells, read-out: IC50 Against VZV

Structure (SMILES): COCCCCCCCCCCCC(=O)O [12-(methyloxy)dodecanoic acid, reference compound]
IC50 [1, 8]: 17.3 µM

Structure (SMILES): CCCCCCCCCCCCC(O)C(=O)O (racemic) [2-hydroxymyristic acid]
Inhibition of VZV (in words) [1]: showed inhibition at 20 and 200 μM | IC50 ([1]; Human alphaherpesvirus 3, MeWo, 8 μM lower end to 33 μM upper end, read-out: Range of IC50 against VZV over Examples): 8 to 33 µM | IC50 [1, 10]: 21.5 µM | IC50 ([1]; Human alphaherpesvirus 3, MeWo, Table 2, DMSO, St. Bartholomew's, read-out: IC50, VZV plaque reduction): > 200 µM | IC50 ([1]; Human alphaherpesvirus 3, MeWo, Table 2, Ethanol, St. Bartholomew's, read-out: IC50, VZV plaque reduction): 33.1 µM | IC50 ([1]; Human alphaherpesvirus 3, MeWo, read-out: 50% inhibitory concentration (IC50), VZV plaque reduction): 8 µM | Anti-viral effect against VZV (in words) ([1]; solubilised in DMSO): no significant anti-viral effect | Inhibition of VZV replication (in words) ([1]; solubilised in ethanol, St. Bartholomew's Hospital): inhibits the replication | CC50 (in vitro): > 200 µM | Cytotoxicity in the assay (in words) (Mewo cells): failed to be cytotoxic | CC50 (Mewo cells; human, mewo cells): > 200 µM | Effect on syncytium formation ([2]; MRC5 monolayers, suggested by results): inhibit syncytium formation | Reduction in viral antigen synthesis ([2]; inoculum one infected to four uninfected cells, three days post-infection, 80 μM (10×IC50)): no reduction in antigen synthesis was apparent | Inhibition of viral antigen synthesis at reduced inoculum ([2]; reduced initial inoculum, harvest time increased, inversely proportional to inoculum): inhibition was apparent | Total protein synthesis (35S methionine incorporation) (MRC5 monolayer; 1:4 inoculum, 0.1 to 10×IC50): unaffected at any concentration tested | Cellular toxicity (in words) (MRC5 monolayer; up to ten times greater than the IC50): not toxic to cells; also recorded: without producing significant cellular toxicity | Inhibition of myristoylation (myristoylation): non-specific inhibition of myristoylation | IC50 (HIV [3]; DMSO, St. Bartholomew's): 220 µM | IC50 (HIV [3]; Ethanol, Mill Hill): 2 µM | IC50 (HIV [3]; Ethanol, St. Bartholomew's): 31.4 µM | Anti-viral effect against HIV on re-test (in words) (HIV [3]; ethanol as the solvent, St. Bartholomew's Hospital): a clear anti-viral effect was apparent | Anti-viral effect against HIV (in words) (HIV [3]; solubilised in DMSO, St. Bartholomew's Hospital): lack of any significant anti-viral effect | Inhibition of HIV replication (in words) (HIV [3]; solubilised in ethanol, Mill Hill): inhibits the replication | IC50 (HIV [4]): 3.9 µM | CC50 ([5]; DMSO, St. Bartholomew's, read-out: TC50, HIV antigen assay): > 400 µM | CC50 ([5]; Ethanol, Mill Hill, antigen assay, read-out: TC50, HIV antigen assay): 192 µM | CC50 ([5]; Ethanol, Mill Hill, virus titration, read-out: TC50, HIV virus titration): 192 µM | CC50 ([5]; Ethanol, St. Bartholomew's, read-out: TC50, HIV antigen assay): 168 µM | Toxicity to C8166 cells (in words) (C8166 cells): toxicity of 2-HM to C8166 cells was detected | solubility ([6]; aqueous solution, aqueous solutions, read-out: Concentration above which 2-HM crystallises from aqueous solutions): 80 to 100 µM (≈ 19.5 to 24.4 µg/mL) | Crystalline deposits ([6]; at the highest concentration, VZV plaque assay): crystalline deposits were observed

Structure (SMILES): CCCCCCCCCCCCC(O)C(=O)O (single isomer, unassigned) [2-hydroxytetradecanoic acid (+)]
IC50 [1, 11]: 48.7 µM | Cytotoxicity in the assay (in words) (Mewo cells): failed to be cytotoxic

Structure (SMILES): COCCCCCCCCCCCC(=O)O [13-oxamyristic acid]
Inhibition of HIV release from infected cells (in words) (HIV [7]): effective

Structure (SMILES): O=C(O)C1CO1 (stereo not drawn) [glycidic acid, reference compound]
IC50 [1, 10]: 4.5 µM

Structure (SMILES): CCCCCCCCCCCCCCC(Br)C(=O)O (stereo not drawn) [2-bromopalmitic acid]
IC50 [1, 8]: 0.89 µM | Toxic at 200 μM (in words) (Mewo cells; Example 3, at 200 μM): toxic at 200 μM | Toxicity in Mewo Cells (Mewo cells; Table 1, Example 3, 0, 2, 20 or 200 μM, eight days post infection): +++

Structure (SMILES): CCCCCCCCCCCCC(O)C(=O)O (single isomer, unassigned) [2-hydroxytetradecanoic acid (-)]
IC50 [1, 11]: 11.5 µM | Cytotoxicity in the assay (in words) (Mewo cells): failed to be cytotoxic

Further lines, with some results ahead:

IC50 Against VZV (μM) [1, 9]: unobtainable
Structure (SMILES): CCCCCCCCCCCCCC(=O)NCC(OCC)OCC [N-myristoylglycinaldiethylacetal (GoA), N-myristoylglycinaldiethylacetal, reference compound]
Inhibition of VZV (in words) [1]: did not cause 50% inhibition of virus at any concentration tested

IC50 [1, 10]: 164 µM
Structure (SMILES): CCCCNCCCCCCCCC(=O)O [9-(butylamino)nonanoic acid, reference compound]

IC50 Against VZV (μM) [1, 9]: unobtainable
Structure (SMILES): CCSCCCCCCCCCCC(=O)O [11-(ethylthio)undecanoic acid, reference compound]

IC50 [1, 10]: 14.2 µM
Structure (SMILES): CCCCCCCCCCCCCCC(O)C(=O)O (stereo not drawn) [2-hydroxypalmitic acid]

IC50 [1, 10]: 56.6 µM
Structure (SMILES): CCCCCCCCCCCCCC(=O)NC [myristoylmethylamide, reference compound]

IC50 [1, 10]: 14.8 µM
Structure (SMILES): CCCCCCCCCCCCC(Br)C(=O)O (stereo not drawn) [2-bromotetradecanoic acid, reference compound]

IC50 Against VZV (μM) [1, 9]: unobtainable
Structure (SMILES): CCNCCCCCCCCCCC(=O)O [11-(ethylamino)undecanoic acid, reference compound]

IC50 [1, 10]: 14.4 µM
Structure (SMILES): CCCCCCCCCC(OCC)C(=O)O (stereo not drawn) [2-(ethyloxy)undecanoic acid, reference compound]

IC50 Against VZV (μM) [1, 9]: unobtainable
Structure (SMILES): CCCCCCCCCCCCC(N=[N+]=[N-])C(=O)O (stereo not drawn) [2-azidotetradecanoic acid, reference compound]
